Measured values: the NIST ThermoML archive (doi:10.1021/je025621h)

Conditions: Liquid

C1CCCCC1 [cyclohexane]
Conditions | vapor or sublimation pressure [kPa]
302.92 K | 16.06
304.19 K | 16.95
306.91 K | 19.05
308.27 K | 20.16
309.9 K | 21.56
313.16 K | 24.61
318.19 K | 30.03
323.14 K | 36.23
328.16 K | 43.51
331.9 K | 49.68
333.16 K | 51.9
333.17 K | 51.9
338.16 K | 61.56
343.16 K | 72.53
345.42 K | 77.94
348.05 K | 84.73

CCO [ethanol]
Conditions | vapor or sublimation pressure [kPa]
312.17 K | 17
313.43 K | 18.15
318.15 K | 23.07
318.24 K | 23.18
320.87 K | 26.39
323.15 K | 29.48
326.13 K | 34
326.16 K | 34.02
328.14 K | 37.34
328.17 K | 37.39
330.65 K | 41.9
333.16 K | 46.94
336.1 K | 53.47
336.14 K | 53.56
338.16 K | 58.48
343.15 K | 72.3
348.14 K | 88.77
351.38 K | 101.11
351.42 K | 101.23

O [water]
Conditions | vapor or sublimation pressure [kPa]
327.13 K | 15
328.16 K | 15.75
330.78 K | 17.85
333.15 K | 19.94
335.82 K | 22.53
338.15 K | 25.02
340.67 K | 27.98
343.16 K | 31.21
346.13 K | 35.42
348.14 K | 38.55
353.14 K | 47.36
358.14 K | 57.79
